Source: patent publication US4154932A (priority 1977, dated 1979)
Read-outs that look alike come from different tables or passages of the source.

Assays:
[1] = tested on: Straub Tail induced by oxymorphone; test: Antagonism of oxymorphone-induced Straub Tail (antagonist activity); type: in vivo, mouse; conditions: for ED50: Mus musculus; for Oxymorphone-Induced Straub Tail po/sc: ratio of ED50 po/sc
Experimental: ^2 Antagonism of Straub Tail induced by oxymorphone (2 mg/kg, s.c.) i

[2] = tested on: phenylquinone induced writhings; test: animal or person; conditions: for ED50: Mus musculus
Experimental: In vivo testing was conducted on many of the compounds of the present invention.

[3] = Physical dependence liability in man (predicted from mouse models); conditions: prediction from the mouse test model
Experimental: (§1) Buprenorphine and (-)XI were tested for physical dependence liability in mice. […] The compounds were then tested as substitutes for morphine in withdrawn morphine-dependent mice.

[4] = tested on: Morphine Antagonism Rat Tail Flick; test: Morphine antagonism, Rat Tail Flick (antagonist activity); type: in vivo; conditions: Table 3; for ED50: Rattus norvegicus; for Morphine Antagonism Rat Tail Flick po/sc: ratio of ED50 po/sc
[5] = tested on: withdrawn morphine-dependent mice; test: Substitution for morphine in withdrawn morphine-dependent mice
Experimental: as §1

[6] = tested on: opioids, oxymorphone and morphine; test: Antagonist activity, overall comparison of Table 3; type: in vivo
Cough Response = test: animal or person; type: in vivo, dog; conditions: for ED50: Canis lupus familiaris
From the text: Comparative Antitussive Effects of (-)-XI, Butorphanol and
Morphine Sulfate in the Unanesthetized Dog

Rat Writhing = Rat Writhing (analgetic activity); type: in vivo; conditions: Table 2; for ED50: Rattus norvegicus; for Rat Writhing po/sc: ratio of ED50 po/sc
[7] = Analgetic activity, overall comparison of Table 2; type: in vivo
Rat Vocalization = Rat Vocalization (analgetic activity); type: in vivo; conditions: Table 2; for ED50: Rattus norvegicus; for Rat Vocalization po/sc: ratio of ED50 po/sc
[8] = tested on: withdrawal jumping (abstinence); test: Primary physical dependence test in mice (withdrawal jumping on naloxone challenge); conditions: repeated sc injections for two days
Experimental: as §1

[9] = sc, mice, Table 1, oxymorphone 2 mg/kg, s.c., read-out: Antagonist Activity, Oxymorphone Straub Tail ED50
[10] = sc, read-out: Agonist Activity, Phenylquinone Writhing ED50
[11] = po, read-out: Antagonist activity ED50, Morphine Antagonism Rat Tail Flick po
[12] = sc, read-out: Antagonist activity ED50, Morphine Antagonism Rat Tail Flick sc
[13] = po, Table 3, read-out: Antagonist activity ED50, Oxymorphone-Induced Straub Tail po
[14] = sc, Table 3, read-out: Antagonist activity ED50, Oxymorphone-Induced Straub Tail sc
[15] = po, unanesthetized dog, read-out: Oral antitussive ED50
[16] = sc, unanesthetized dog, read-out: Antitussive ED50
[17] = central, read-out: Analgetic activity ED50, Intraventricular
[18] = po, read-out: Analgetic activity ED50, Mouse Writhing po
[19] = sc, read-out: Analgetic activity ED50, Mouse Writhing sc
[20] = po, read-out: Analgetic activity ED50, Rat Writhing po
[21] = sc, read-out: Analgetic activity ED50, Rat Writhing sc
[22] = po, read-out: Analgetic activity ED50, Rat Vocalization po
[23] = sc, read-out: Analgetic activity ED50, Rat Vocalization sc
[24] = ratio of ED50 sc/intraventricular, Table 2

Compound: Oc1ccc2c(c1)[C@]13CCN(CC4CCC4)[C@H](C2)[C@@H]1CCOC3 (racemic) [(±)-XIV, 17-Cyclobutylmethyl-3-hydroxy-6-oxamorphinan]
- ED50 [1, 9]: ~6 mg/kg
- ED50 [2, 10]: 0.015 mg/kg

Compound: COc1ccc2c(c1)[C@]13CCN(CC4CC4)[C@H](C2)[C@@H]1CCOC3 [(-)-X, (-)-17-Cyclopropylmethyl-3-methoxy-6-oxamorphinan]
- ED50 [1, 9]: ~6 mg/kg
- ED50 [2, 10]: 0.14 mg/kg

Compound: Oc1ccc2c(c1)[C@]13CCN(CC4CC4)[C@H](C2)[C@@H]1CCOC3 [(-)-XI, (-)-17-Cyclopropylmethyl-3-hydroxy-6-oxamorphinan]
- Predicted physical dependence liability in man [3]: nil or of a low order
- ED50 [4, 11]: ~3 mg/kg
- ED50 [4, 12]: 0.26 mg/kg
- Morphine Antagonism Rat Tail Flick po/sc [4]: 12
- Substitution for morphine ([5]; 3 to 54 mg/kg sc): no evidence of substitution for morphine
- Oral/parenteral potency ratio relative to antagonist activity, comparison [6]: superior to butorphanol and about equal to that of buprenorphine
- Antagonist potency relative to butorphanol ([6]; blocking the effects of oxymorphone and morphine): about twice as potent as butorphanol
- ED50 [1, 9]: 0.44 mg/kg
- ED50 [1, 13]: 14 mg/kg
- ED50 [1, 14]: 0.44 mg/kg
- Oxymorphone-Induced Straub Tail po/sc ([1]; Table 3): 32
- Percent Inhibition of Cough Response (Cough Response; 0.005 mg/kg sc, 15 min): 7%
- Percent Inhibition of Cough Response (Cough Response; 0.005 mg/kg sc, 30 min): 52%
- Percent Inhibition of Cough Response (Cough Response; 0.005 mg/kg sc, 60 min): 15%
- Percent Inhibition of Cough Response (Cough Response; 0.005 mg/kg sc, 120 min): 41%
- Percent Inhibition of Cough Response (Cough Response; 0.005 mg/kg sc, 180 min): 41%
- Percent Inhibition of Cough Response (Cough Response; 0.005 mg/kg sc, 240 min): 37%
- Percent Inhibition of Cough Response (Cough Response; 0.005 mg/kg sc, 300 min): 33%
- Percent Inhibition of Cough Response (Cough Response; 0.01 mg/kg sc, 15 min): 38%
- Percent Inhibition of Cough Response (Cough Response; 0.01 mg/kg sc, 30 min): 68%
- Percent Inhibition of Cough Response (Cough Response; 0.01 mg/kg sc, 60 min): 86%
- Percent Inhibition of Cough Response (Cough Response; 0.01 mg/kg sc, 120 min): 98%
- Percent Inhibition of Cough Response (Cough Response; 0.01 mg/kg sc, 180 min): 62%
- Percent Inhibition of Cough Response (Cough Response; 0.01 mg/kg sc, 240 min): 50%
- Percent Inhibition of Cough Response (Cough Response; 0.01 mg/kg sc, 300 min): 24%
- Percent Inhibition of Cough Response (Cough Response; 0.02 mg/kg sc, 15 min): 90%
- Percent Inhibition of Cough Response (Cough Response; 0.02 mg/kg sc, 30 min): 99%
- Percent Inhibition of Cough Response (Cough Response; 0.02 mg/kg sc, 60 min): 88%
- Percent Inhibition of Cough Response (Cough Response; 0.02 mg/kg sc, 120 min): 70%
- Percent Inhibition of Cough Response (Cough Response; 0.02 mg/kg sc, 180 min): 67%
- Percent Inhibition of Cough Response (Cough Response; 0.02 mg/kg sc, 240 min): 67%
- Percent Inhibition of Cough Response (Cough Response; 0.02 mg/kg sc, 300 min): 64%
- Percent Inhibition of Cough Response (Cough Response; 0.05 mg/kg sc, 15 min): 100%
- Percent Inhibition of Cough Response (Cough Response; 0.05 mg/kg sc, 30 min): 100%
- Percent Inhibition of Cough Response (Cough Response; 0.05 mg/kg sc, 60 min): 100%
- Percent Inhibition of Cough Response (Cough Response; 0.05 mg/kg sc, 120 min): 100%
- Percent Inhibition of Cough Response (Cough Response; 0.05 mg/kg sc, 180 min): 100%
- Percent Inhibition of Cough Response (Cough Response; 0.05 mg/kg sc, 240 min): 100%
- Percent Inhibition of Cough Response (Cough Response; 0.05 mg/kg sc, 300 min): 100%
- ED50 (Cough Response; [15]): 0.04 mg/kg
- ED50 (Cough Response; [16]): 0.006 mg/kg
- Antitussive potency relative to butorphanol (Cough Response; dog, in vivo, po): 8 times
- Antitussive potency relative to morphine sulfate (Cough Response; dog, in vivo, po): 16 times
- Antitussive potency relative to butorphanol (Cough Response; dog, in vivo, sc): 1.7 times
- Antitussive potency relative to morphine sulfate (Cough Response; dog, in vivo, sc): approximately 7 times
- Duration of antitussive activity (Cough Response; dog, in vivo, sc): significantly longer duration of activity than either butorphanol or morphine sulfate
- Antitussive activity (Cough Response; subcutaneous, unanesthetized dog): potent antitussive agent
- ED50 [2, 17]: 0.0012 mg/kg
- ED50 [2, 18]: 0.3 mg/kg
- ED50 [2, 10]: 0.028 mg/kg
- ED50 [2, 19]: 0.028 mg/kg
- Mouse Writhing po/sc ([2]; mouse, in vivo): 11
- sc/I. Vent. ([2]; mouse, in vivo, sc): 23
- ED50 (Rat Writhing; [20]): 0.22 mg/kg
- ED50 (Rat Writhing; [21]): 0.021 mg/kg
- Rat Writhing po/sc (Rat Writhing): 11
- Oral/parenteral analgetic potency ratio, comparison [7]: comparable to buprenorphine and approximately ten times better than butorphanol
- Oral analgetic potency, comparison ([7]; oral): markedly better than butorphanol and equivalent to buprenorphine
- ED50 (Rat Vocalization; [22]): 0.11 mg/kg
- ED50 (Rat Vocalization; [23]): 0.006 mg/kg
- Rat Vocalization po/sc (Rat Vocalization): 18
- Withdrawal jumping (primary physical dependence) [8]: did not exhibit withdrawal jumping (abstinence)

Compound: CO[C@@]12CC[C@@]3(C[C@@H]1[C@](C)(O)C(C)(C)C)[C@H]1Cc4ccc(O)c5c4[C@@]3(CCN1CC1CC1)[C@H]2O5 [Buprenorphine]
- Predicted physical dependence liability in man [3]: morphine-like
- ED50 [4, 11]: 0.92 mg/kg
- ED50 [4, 12]: 0.063 mg/kg
- Morphine Antagonism Rat Tail Flick po/sc [4]: 15
- Substitution for morphine ([5]; 1 mg/kg sc, or less): complete substitution for morphine
- ED50 [1, 14]: 0.46 mg/kg
- ED50 [2, 17]: 0.0004 mg/kg
- ED50 [2, 18]: 0.27 mg/kg
- ED50 [2, 19]: 0.021 mg/kg
- Mouse Writhing po/sc ([2]; ratio of ED50 po/sc, Table 2): 13
- sc/I. Vent. [2, 24]: 53
- ED50 (Rat Writhing; [20]): 0.16 mg/kg
- ED50 (Rat Writhing; [21]): 0.013 mg/kg
- Rat Writhing po/sc (Rat Writhing): 12
- ED50 (Rat Vocalization; [22]): ~0.08 mg/kg
- ED50 (Rat Vocalization; [23]): 0.005 mg/kg
- Rat Vocalization po/sc (Rat Vocalization): ~ 16
- Withdrawal jumping (primary physical dependence) [8]: did not exhibit withdrawal jumping (abstinence)

Compound: Oc1ccc2c(c1)[C@@]13CCCC[C@@]1(O)[C@@H](C2)N(CC1CCC1)CC3 [Butorphanol]
- ED50 [4, 11]: 22 mg/kg
- ED50 [4, 12]: 0.43 mg/kg
- Morphine Antagonism Rat Tail Flick po/sc [4]: 51
- ED50 [1, 13]: 55 mg/kg
- ED50 [1, 14]: 0.98 mg/kg
- Oxymorphone-Induced Straub Tail po/sc ([1]; Table 3): 56
- Percent Inhibition of Cough Response (Cough Response; 0.1 mg/kg sc, 15 min): 98%
- Percent Inhibition of Cough Response (Cough Response; 0.1 mg/kg sc, 30 min): 96%
- Percent Inhibition of Cough Response (Cough Response; 0.1 mg/kg sc, 60 min): 92%
- Percent Inhibition of Cough Response (Cough Response; 0.1 mg/kg sc, 120 min): 84%
- Percent Inhibition of Cough Response (Cough Response; 0.1 mg/kg sc, 180 min): 64%
- Percent Inhibition of Cough Response (Cough Response; 0.1 mg/kg sc, 240 min): 41%
- Percent Inhibition of Cough Response (Cough Response; 0.1 mg/kg sc, 300 min): 28%
- ED50 (Cough Response; [15]): 0.32 mg/kg
- ED50 (Cough Response; [16]): 0.01 mg/kg
- ED50 [2, 17]: 0.0019 mg/kg
- ED50 [2, 18]: 5.1 mg/kg
- ED50 [2, 19]: 0.045 mg/kg
- Blood-brain barrier penetration ([2]; mouse, in vivo): penetrate the blood-brain barrier more readily than either morphine or buprenorphine and to about the same degree as each other
- Mouse Writhing po/sc ([2]; ratio of ED50 po/sc, Table 2): 113
- sc/I. Vent. [2, 24]: 24
- ED50 (Rat Writhing; [20]): 2.1 mg/kg
- ED50 (Rat Writhing; [21]): 0.04 mg/kg
- Rat Writhing po/sc (Rat Writhing): 53
- ED50 (Rat Vocalization; [22]): 0.83 mg/kg
- ED50 (Rat Vocalization; [23]): 0.012 mg/kg
- Rat Vocalization po/sc (Rat Vocalization): 69

Compound: CN1CC[C@]23c4c5ccc(O)c4O[C@H]2[C@@H](O)C=C[C@H]3[C@H]1C5 [Morphine SO4]
- Oral antitussive ED50 (Cough Response; dog, in vivo, po): 0.62 mg/kg
- Antitussive ED50 (Cough Response; dog, in vivo, sc): 0.04 mg/kg
- ED50 [2, 17]: 0.0032 mg/kg
- ED50 [2, 18]: 3.1 mg/kg
- ED50 [2, 19]: 0.26 mg/kg
- Mouse Writhing po/sc ([2]; mouse, in vivo): 12
- ED50 (Rat Writhing; [20]): 1.6 mg/kg
- ED50 (Rat Writhing; [21]): 0.16 mg/kg
- Rat Writhing po/sc (Rat Writhing): 10
- ED50 (Rat Vocalization; [22]): 2.1 mg/kg
- ED50 (Rat Vocalization; [23]): 0.19 mg/kg
- Rat Vocalization po/sc (Rat Vocalization): 11

Compound: C=CCN1CC[C@]23c4c5ccc(O)c4O[C@H]2C(=O)CC[C@@]3(O)[C@H]1C5 [Naloxone, reference compound]
- ED50 [4, 11]: 2.7 mg/kg
- ED50 [4, 12]: 0.01 mg/kg
- Morphine Antagonism Rat Tail Flick po/sc [4]: 270
- ED50 [1, 13]: 13 mg/kg
- ED50 [1, 14]: 0.09 mg/kg
- Oxymorphone-Induced Straub Tail po/sc ([1]; Table 3): 144
